According to ChEMBL document CHEMBL4219147, “Design, synthesis, and structure-activity relationships of novel 4,7,12,12a-tetrahydro-5H-thieno[3',2':3,4]pyrido[1,2-b]isoquinoline and 5,8,12,12a-tetrahydro-6H-thieno[2',3':4,5]pyrido[2,1-a]isoquinoline derivatives as cellular activators of adenosine 5'-monophosphate-activated protein kinase …” (Bioorg Med Chem, 2018):
Calls of active or inactive are those of the source. The rule behind the calls is not given here.

Legend:
L6 [1] = assay: Activation of AMPK in differentiated Sprague-Dawley rat L6 myotube cells assessed as glucose consumption at 20 uM after 12 hrs by colorimetric assay (reference value: 100 +/- 1.8%); assay type: cell-based
[2] = Cytotoxicity against Sprague-Dawley rat L6 cells assessed as cell viability at 5 uM after 12 hrs by SRB assay (reference value: 100 +/- 1.8%); assay type: cell-based; conditions: read-out: Activity
L6 [3] = assay: Activation of AMPK in differentiated Sprague-Dawley rat L6 myotube cells assessed as glucose consumption at 10 uM after 12 hrs by colorimetric assay (reference value: 100 +/- 1.8%); assay type: cell-based
[4] = Cytotoxicity against Sprague-Dawley rat L6 cells assessed as cell viability at 20 uM after 12 hrs by SRB assay (reference value: 100 +/- 1.8%); assay type: cell-based; conditions: read-out: Activity
[5] = Cytotoxicity against Sprague-Dawley rat L6 cells assessed as cell viability at 10 uM after 12 hrs by SRB assay (reference value: 100 +/- 1.8%); assay type: cell-based; conditions: read-out: Activity
L6 [6] = assay: Activation of AMPK in differentiated Sprague-Dawley rat L6 myotube cells assessed as increase in glucose consumption at 5 to 20 uM after 12 hrs by colorimetric assay relative to control; assay type: cell-based
L6 [7] = assay: Activation of AMPK in differentiated Sprague-Dawley rat L6 myotube cells assessed as glucose consumption at 5 uM after 12 hrs by colorimetric assay (reference value: 100 +/- 1.8%); assay type: cell-based
L6 [8] = assay: Inhibition of mitochondrial respiratory complex 1 in differentiated Sprague-Dawley rat L6 myotube cells assessed as mitochondrial membrane potential at 20 uM after 40 to 60 mins by JC-1 staining based fluorescence assay (reference value: 100 +/- 1.6%); assay type: cell-based; parameters: scale not given: the % may be the effect or the level left
Rattus norvegicus [9] = species on record: Rattus norvegicus; assay: Activation of AMPK in Sprague-Dawley rat primary hepatocytes assessed as inhibition of gluconeogenesis by measuring glucose production after 6 hrs by colorimetric assay
Rattus norvegicus [10] = species on record: Rattus norvegicus; assay: Activation of AMPK in Sprague-Dawley rat primary hepatocytes assessed as inhibition of gluconeogenesis by measuring glucose production at 5 uM after 6 hrs by colorimetric assay (reference value: 100 +/- 3.5%); parameters: scale not given: the % may be the effect or the level left
L6 [11] = assay: Activation of AMPK in Sprague-Dawley rat L6 myotube cells assessed as increase in acetyl-CoA carboxylase phosphorylation at Ser79 residues at 5 to 20 uM after 1 hr by Western blot analysis; assay type: cell-based
L6 [12] = assay: Upregulation of AMPKalpha phosphorylation at Thr172 residues in Sprague-Dawley rat L6 myotube cells at 5 to 20 uM after 1 hr by Western blot analysis; assay type: cell-based
Rattus norvegicus [13] = species on record: Rattus norvegicus; assay: Activation of AMPK in Sprague-Dawley rat primary hepatocytes assessed as inhibition of gluconeogenesis by measuring glucose production at 20 uM after 6 hrs by colorimetric assay (reference value: 100 +/- 3.5%); parameters: scale not given: the % may be the effect or the level left
L6 [14] = assay: Inhibition of mitochondrial respiratory complex 1 in differentiated Sprague-Dawley rat L6 myotube cells assessed as mitochondrial membrane potential at 5 uM after 40 to 60 mins by JC-1 staining based fluorescence assay (reference value: 100 +/- 1.6%); assay type: cell-based; parameters: scale not given: the % may be the effect or the level left
L6 [15] = assay: Inhibition of mitochondrial respiratory complex 1 in differentiated Sprague-Dawley rat L6 myotube cells assessed as mitochondrial membrane potential at 10 uM after 40 to 60 mins by JC-1 staining based fluorescence assay (reference value: 100 +/- 1.6%); assay type: cell-based; parameters: scale not given: the % may be the effect or the level left
L6 [16] = assay: Activation of AMPK in differentiated Sprague-Dawley rat L6 myotube cells assessed as increase in glucose consumption at 5 to 20 uM after 12 hrs by colorimetric assay relative to berberine; assay type: cell-based
Rattus norvegicus [17] = species on record: Rattus norvegicus; assay: Activation of AMPK in Sprague-Dawley rat primary hepatocytes assessed as inhibition of gluconeogenesis by measuring glucose production at 10 uM after 6 hrs by colorimetric assay (reference value: 100 +/- 3.5%); parameters: scale not given: the % may be the effect or the level left
L6 [18] = assay: Activation of AMPK in differentiated Sprague-Dawley rat L6 myotube cells assessed as increase in glucose consumption at 10 uM after 12 hrs by colorimetric assay relative to control; assay type: cell-based

SMILES	Activity (L6 [1])	viability at 12 h, 5 µM [2]	Activity (L6 [3])	viability at 12 h, 20 µM [4]	viability at 12 h, 10 µM [5]	fold change (FC) (L6 [6])	Activity (L6 [7])	Activity (L6 [8])	inhibition (Rattus norvegicus [9])	Activity (Rattus norvegicus [10])	Activity (L6 [11])	Activity (L6 [12])	Activity (Rattus norvegicus [13])	Activity (L6 [14])	Activity (L6 [15])	fold change (FC) (L6 [16])	Activity (Rattus norvegicus [17])	fold change (FC) (L6 [18])
COc1ccc(OC)c2c1CC1c3cc(Cc4nccs4)sc3CCN1C2 (stereo not given)	167%	104%	152%	103%	103%	1.3 to 1.5	134%	–	–	–	–	–	–	–	–	–	–	–
COc1ccc(OC)c2c1CC1c3cc(Cc4ccc(N5CCOCC5)cc4)sc3CCN1C2 (stereo not given)	157%	97.7%	137%	98.9%	99.2%	1.4	97.1%	–	–	–	–	–	–	–	–	–	–	–
COc1ccc(OC)c2c1CC1c3cc(Cc4ccccn4)sc3CCN1C2 (stereo not given)	172%	104%	148%	103%	103%	1.3 to 1.5	140%	–	–	–	–	–	–	–	–	–	–	–
COc1ccc(OC)c2c1CC1c3cc(Cc4ccc(F)cc4)sc3CCN1C2 (stereo not given)	235%	98.8%	238%	100%	98.2%	2.3 to 2.9	216%	62.9%	Dose-dependent effect	96.7%	Active	Active	60.6%	82.8%	76%	2.3	83.4%	–
N#CC(C#N)=NNc1cccc(Cl)c1	–	–	–	–	–	–	–	–	–	–	–	–	–	–	42.9%	–	–	–
COc1cccc(Cc2cc3c(s2)CCN2Cc4c(OC)ccc(OC)c4CC32)c1 (stereo not given)	243%	100%	242%	100%	94.9%	2.1 to 2.7	245%	59.2%	Dose-dependent effect	73.2%	Active	Active	38.1%	76.3%	72.8%	2.3	58.8%	–
C=CCOc1ccc(Cc2cc3c(s2)CCN2Cc4c(OC)ccc(OC)c4CC32)cc1 (stereo not given)	265%	99.4%	249%	98.7%	102%	2.1 to 2.7	213%	54%	Dose-dependent effect	58.7%	Active	Active	49%	83.7%	72.8%	2.3	49.6%	–
c1cc2c(s1)CC1c3cc4c(cc3CCN1C2)OCO4 (stereo not given)	133%	98.6%	134%	102%	99.7%	–	132%	–	–	–	–	–	–	–	–	–	–	1.3
COc1ccc(OC)c2c1CC1c3cc(Cc4ccc(N5CCCCC5)cc4)sc3CCN1C2 (stereo not given)	270%	103%	252%	102%	101%	2.5	214%	58.5%	Dose-dependent effect	51.6%	Active	Active	43%	82.8%	71.7%	–	46.7%	–
COc1ccc(OC)c2c1CC1c3cc(Cc4cccc(C)c4)sc3CCN1C2 (stereo not given)	251%	99.6%	266%	101%	99%	–	237%	67.6%	Dose-dependent effect	82.7%	Active	Active	47.5%	84.5%	77.8%	–	65.6%	–
COc1ccc(OC)c2c1CC1c3cc(Cc4ccncc4)sc3CCN1C2 (stereo not given)	153%	105%	130%	104%	110%	1.3 to 1.5	111%	–	–	–	–	–	–	–	–	–	–	–
COc1ccc(OC)c2c1CC1c3cc(Cc4cc(OC)c(OC)c(OC)c4)sc3CCN1C2 (stereo not given)	184%	95.3%	188%	104%	104%	1.9	174%	–	–	–	–	–	–	–	–	–	–	–
COc1ccc(OC)c2c1CC1c3cc(Cc4ccc(C)cc4)sc3CCN1C2 (stereo not given)	238%	100%	230%	107%	106%	2.3 to 2.9	222%	49%	Dose-dependent effect	73.3%	Active	Active	55.7%	67.7%	57.7%	2.3	65%	–
COc1ccc(OC)c2c1CC1c3cc(Cc4ccc(NC(C)=O)cc4)sc3CCN1C2 (stereo not given)	142%	96.2%	130%	94.9%	97.2%	1.3	121%	–	–	–	–	–	–	–	–	–	–	–
COc1ccc(OC)c2c1CC1c3cc(Cc4ccc(N5CCN(C)CC5)cc4)sc3CCN1C2 (stereo not given)	181%	106%	169%	107%	104%	1.7	168%	–	–	–	–	–	–	–	–	–	–	–
COc1ccc(OC)c2c1CC1c3cc(Cc4ccc(N(C)C)cc4)sc3CCN1C2 (stereo not given)	230%	110%	201%	107%	108%	2	200%	–	–	–	–	–	–	–	–	–	–	–
COc1ccc(OC)c2c1CC1c3cc(Cc4ccc(C(F)(F)F)cc4)sc3CCN1C2 (stereo not given)	229%	102%	189%	100%	101%	1.9	156%	–	–	–	–	–	–	–	–	–	–	–
COc1ccc(OC)c2c1CC1c3cc(Cc4ccc(S(C)(=O)=O)cc4)sc3CCN1C2 (stereo not given)	97.9%	101%	106%	101%	102%	1.1	128%	–	–	–	–	–	–	–	–	–	–	–
CCc1cc2c(s1)CC1c3cc4c(cc3CCN1C2)OCO4 (stereo not given)	227%	99.5%	219%	102%	102%	–	212%	–	–	–	–	–	–	–	–	–	–	2.2
COc1ccc(OC)c2c1CC1c3cc(C(C)c4ccccc4)sc3CCN1C2 (stereo not given)	246%	101%	264%	101%	102%	2.3 to 2.9	244%	66%	Dose-dependent effect	43.4%	Active	Active	36%	86.6%	76.6%	2.3	39.5%	–
COc1ccc(OC)c2c1CC1c3cc(Cc4ccc(Br)cc4)sc3CCN1C2 (stereo not given)	242%	101%	187%	101%	105%	1.9	169%	–	–	–	–	–	–	–	–	–	–	–
COc1ccc(OC)c2c1CC1c3cc(Cc4ccc5c(c4)CCO5)sc3CCN1C2 (stereo not given)	212%	101%	212%	103%	103%	2.1 to 2.7	200%	–	–	–	–	–	–	–	–	–	–	–
